Data on 18 molecules can be found in patent publication US8476251B2, “Skin care compositions comprising substituted diamines” (Conopco, Inc., priority 2010, dated 2013).

The subject of the test is Melanoderm tissue equivalent model MEL-300 containing melanocytes obtained from dark skin individuals. The test can be described thus: Melanoderm tissue equivalent model MEL-300, total melanin content (inhibition of melanogenesis). The following applies: 14 days; for inhibition at 10 µM: Melanocyte, 336 h, 10 μM in maintenance medium, total melanin content vs DMSO vehicle control, read-out: Melanoderm (% Reduction at 10 μM); for melanogenesis inhibition (in words): Melanoderm MEL-300, 10 μM. Format: cell-based. On the procedure:
Melanoderm tissue equivalent model MEL-300 (MatTek: Ashland, Mass.) containing melanocytes obtained from dark skin individuals were cultured as per supplier instructions. Components were added to the maintenance medium phase (no topical treatments) at a final concentration of 10 μM for 14 days at which time the experiment was terminated and the tissues assessed for melanin content. Medium and treatments were changed three times per week. DMSO was utilized as the vehicle control and all treatments were performed at least in duplicate.
For quantification of total melanin, each Melanoderm was placed into an individual Eppendorf tube (2 mL) into which 250 μL of Solvable™ tissue solubilizer (Packard Bioscience Co., Cat# 6NE9100) was added. Each tube was vortexed and incubated at 60° C. for 18 hours. Each sample was then centrifuged (5-minutes at 13,000 RPMs) to remove any particulates. 100 or 200 μL of supernatant were transferred to a 96 well microtiter plate and the absorbance read at 490 nm. Total melanin content was calculated from a standard curve using synthetic melanin (Sigma Cat# M8631). Data was analyzed for significance using the t-test in Microsoft Excel to generate p-values (p-values less than 0.01 represent 99% confidence, p values of 0.05 represent 95% confidence both of which are statistically significant).

Turning to `CN(C)CCN(Cc1ccccc1)CC1CCCCC1` [Compound 3a, N-benzyl-N-(cyclohexylmethyl)-N′,N′-dimethylethane-1,2-diamine], the inhibition at 10 µM is 51.3% and the “melanogenesis inhibition (in words)” value is given as “effective at melanogenesis inhibition”.

Consider `CN(C)CCN(Cc1ccccc1)Cc1ccccc1` [Compound 3b, N,N-dibenzyl-N′,N′-dimethylethane-1,2-diamine], for which the inhibition at 10 µM is 39.5% and the “melanogenesis inhibition (in words)” value was “effective at melanogenesis inhibition”.

Turning to `CN(C)CCN(CCc1ccccc1)Cc1ccccc1` [Compound 3c, N-benzyl-N′,N′-dimethyl-N-(2-phenylethyl)ethane-1,2-diamine], the inhibition at 10 µM turned out to be 51.8%.

On to `CN(C)CCN(Cc1ccccc1)Cc1ccc2ccccc2c1` [Compound 3d, N-benzyl-N′,N′-dimethyl-N-(naphthalen-2-ylmethyl)ethane-1,2-diamine], for which the inhibition at 10 µM turned out to be 56%.

As for `Cc1ccccc1CN(CCN(C)C)Cc1ccccc1` [Compound 3e, N-benzyl-N′,N′-dimethyl-N-(2-methylbenzyl)ethane-1,2-diamine], the inhibition at 10 µM stood at 46.6%.

For the molecule `Cc1cccc(CN(CCN(C)C)Cc2ccccc2)c1` [Compound 3f, N-benzyl-N′,N′-dimethyl-N-(3-methylbenzyl)ethane-1,2-diamine], the inhibition at 10 µM stood at 51.6%.

For `Cc1ccc(CN(CCN(C)C)Cc2ccccc2)cc1` [Compound 3g, N-benzyl-N′,N′-dimethyl-N-(4-methylbenzyl)ethane-1,2-diamine], the inhibition at 10 µM is 53.2%.

For `COc1ccc(CN(CCN(C)C)Cc2ccccc2)cc1` [Compound 3h, N-benzyl-N-(4-methoxybenzyl)-N′,N′-dimethylethane-1,2-diamine], the inhibition at 10 µM stood at 48.8%.

As for `CN(C)CCN(Cc1ccccc1)Cc1ccc(F)cc1` [Compound 3i, N-benzyl-N-(4-fluorobenzyl)-N′,N′-dimethylethane-1,2-diamine], the inhibition at 10 µM worked out at 47.8%.

As to `CCN(CCN(C)C)Cc1ccccc1` [Compound 3j, N-benzyl-N-ethyl-N′,N′-dimethylethane-1,2-diamine], the inhibition at 10 µM is -0.1% and the “melanogenesis inhibition (in words)” value is on record as “is not”.

As to `CN(C)CCN(CC1CCCCC1)CC1CCCCC1` [Compound 5a, N,N-bis(cyclohexylmethyl)-N′,N′-dimethylethane-1,2-diamine], the inhibition at 10 µM stood at 42.5%.

With `COc1ccc(CN(CCN(C)C)Cc2ccc(OC)cc2)cc1` [Compound 5b, N,N-bis(4-methoxybenzyl)-N′,N′-dimethylethane-1,2-diamine], the inhibition at 10 µM worked out at 48.7%.

For the molecule `CN(C)CCN(Cc1ccc(F)cc1)Cc1ccc(F)cc1` [Compound 5c, N,N-bis(4-fluorobenzyl)-N′,N′-dimethylethane-1,2-diamine], the inhibition at 10 µM came out at 49.3%.

For `CCN(CC)CCN(Cc1ccccc1)Cc1ccccc1` [Compound 5d, N,N-dibenzyl-N′,N′-diethylethane-1,2-diamine], the inhibition at 10 µM was determined as 45.6%.

On to `c1ccc(CN(CCN2CCCC2)Cc2ccccc2)cc1` [Compound 5e, N,N-dibenzyl-2-(pyrrolidin-1-yl)ethanamine], for which the inhibition at 10 µM is 40.6%.

`CN(C)CCCN(Cc1ccccc1)Cc1ccccc1` [Compound 5f, N,N-dibenzyl-N′,N′-dimethylpropane-1,3-diamine]: the inhibition at 10 µM was found to be 50%.

Take `CN(C)CCN(Cc1ccccc1)C(=O)c1ccccc1` [Compound 7, N-benzyl-N-[2-(dimethylamino)ethyl]benzamide]: the inhibition at 10 µM is 4.4% and the “melanogenesis inhibition (in words)” value is “is not”.

Consider `CC(c1ccccc1)N(CCN(C)C)Cc1ccccc1` (stereo not shown) [Compound 11, N-benzyl-N′,N′-dimethyl-N-(1-phenylethyl)ethane-1,2-diamine], for which the inhibition at 10 µM turned out to be 47.8%.
